{"source": "patent US20240226124A9", "about": "“CANNABIDIOL FOR TREATING NEURODEGENERATIVE DISEASES” (AUGUSTA UNIVERSITY RESEARCH INSTITUTE, INC., priority 2021, published 2024)", "format_in_all_cases": "in vivo, mouse", "key": {"5xFAD mice [1]": {"test_system": "5xFAD mice", "experiment": "Novel Object Recognition (NOR) test in 5xFAD mice", "settings": "CBD 10 mg/kg intraperitoneally every other day, 8 doses over 2 weeks, from −0.2±0.8 in placebo, p≤0.04", "method": "(§1) 5xFAD (expressing human APP and PSEN1 transgenes with a total of five AD-linked mutations) transgenic mice (male 9-12-month-olds) were used. These 5xFAD transgenic mice rapidly recapitulate major features of AD amyloid pathology. Mice were randomized into two experimental groups (placebo or CBD-treated; 6-10 mice/group) by a blinded investigator. A group of untreated wild-type (WT) experiments were performed in accordance with the rules and regulations of the Augusta University Institutional Animal Care and Use Committee (IACUC). In the treatment group, mice received CBD isolate (tetrahydrocannabinol-free, Canabidiol Ltd., Dublin, Ireland), 10 mg/kg intraperitoneally every other day for 8 doses over 2 weeks. […]\n(§2) To assess the behavior, Open Field (OF) and Novel Object Recognition (NOR) tests were used. […] The ability of the mouse to discriminate between the familiar and novel object was quantified as a discrimination index, DI=(Tn−Tf)/(Tn+Tf), where Tn is the time spent by the mouse with the novel object, and Tf indicates the time spent with the familiar object. In OF evaluation, mice were tested in a square box (40 cm by 40 cm by 40 cm) for 10 min, and activity was digitally recorded. Distance traveled, mean velocity, and time spent in the center zone were analyzed with Ethovision XT video-tracking software (Noldus Information Technology, USA)."}, "5xFAD mice [2]": {"test_system": "5xFAD mice", "experiment": "Open Field (OF) test in 5xFAD mice", "settings": "CBD 10 mg/kg intraperitoneally every other day, 8 doses over 2 weeks, 10 min test, from 190±90 sec in placebo, p>0.05", "method": "as §1, §2"}, "β-amyloid peptide": {"test_system": "β-amyloid peptide", "experiment": "Immunofluorescence staining of β-amyloid peptide in brain tissues", "settings": "5xFAD mice, CBD 10 mg/kg intraperitoneally every other day, 8 doses over 2 weeks; hippocampus area", "method": "(§3) 5xFAD (expressing human APP and PSEN1 transgenes with a total of five AD-linked mutations) transgenic mice (male 9-12-month-olds) were used. These 5xFAD transgenic mice rapidly recapitulate major features of AD amyloid pathology. Mice were randomized into two experimental groups (placebo or CBD-treated; 6-10 mice/group) by a blinded investigator. A group of untreated wild-type (WT) experiments were performed in accordance with the rules and regulations of the Augusta University Institutional Animal Care and Use Committee (IACUC). In the treatment group, mice received CBD isolate (tetrahydrocannabinol-free, Canabidiol Ltd., Dublin, Ireland), 10 mg/kg intraperitoneally every other day for 8 doses over 2 weeks. Placebo-treated mice were administered along the same schedule as CBD.\n(§4) Brain and blood tissues were collected and processed for histology and Immunofluorescence imaging. Briefly, brain tissues were labeled with specific, fluorescent-conjugated antibodies with fluorescent conjugation against amyloid-β, IL-33, IBA1 (for microglia), TREM2, and GFAP (Glial Fibrillary Acidic Protein for astrocytes identification). Slides were counterstained using DAPI (4′,6-diamidino-2-phenylindole) prior to examination and imaging by Zeiss Fluorescence Microscope."}, "IL-33 [3]": {"test_system": "IL-33", "experiment": "Immunofluorescence staining of IL-33 in brain tissues", "settings": "5xFAD mice, CBD treated compared to untreated group; more evident in astrocytes", "method": "as §3, §4"}, "TREM2 [4]": {"test_system": "TREM2", "experiment": "Immunofluorescence staining of TREM2 in brain tissues", "settings": "5xFAD mice, CBD treated compared to untreated group; distinctively in microglial cells", "method": "as §3, §4"}, "IL-33 [5]": {"test_system": "IL-33", "experiment": "Flow cytometry of IL-33 in brain astrocytes (GFAP+ cells)", "settings": "brain of 5xFAD mice, CBD 10 mg/kg intraperitoneally, 8 doses over 2 weeks; p≤0.001", "method": "as §1\n(§5) For flow cytometry analysis, single-cell suspension was prepared from brain, and blood by sieving the brain tissues through a […] cell strainer followed by centrifugation (252 g, 10 min). All cells were then stained with fluorescent antibodies based on routine flow cytometry staining protocol as described previously to quantify astrocytes (GFAP+cells), IL-33, myeloid cells (CD11b+), and TREM2 in the brain as well as leukocytes (CD45+) and IL-6 in the blood. IL-6 was measured as a reliable biomarker in the blood. […] Proper compensation was set to ensure the median fluorescence intensities of negative and positive cells were […] and then was used to gate the population. […]"}, "TREM2 [6]": {"test_system": "TREM2", "experiment": "Flow cytometry of TREM2 in brain microglia (CD11b+ cells)", "settings": "brain of 5xFAD mice, CBD 10 mg/kg intraperitoneally, 8 doses over 2 weeks; p≤0.0001", "method": "as §1, §5"}, "IL-6": {"test_system": "IL-6", "experiment": "Flow cytometry of IL-6 in peripheral blood leukocytes", "settings": "whole blood of 5xFAD mice, CBD 10 mg/kg intraperitoneally, 8 doses over 2 weeks; decreased from 6.9±1.9%, p≤0.009", "method": "as §1, with “(IACUC).” for “(IACUC). In the treatment group, mice received CBD isolate (tetrahydrocannabinol-free, Canabidiol Ltd., Dublin, Ireland), 10 mg/kg intraperitoneally every other day for 8 doses over 2 weeks.”\nFor flow cytometry analysis, single-cell suspension was prepared from brain, and blood by sieving the brain tissues through a […] cell strainer followed by centrifugation (252 g, 10 min). All cells were then stained with fluorescent antibodies based on routine flow cytometry staining protocol as described previously to quantify astrocytes (GFAP+cells), IL-33, myeloid cells (CD11b+), and TREM2 in the brain as well as leukocytes (CD45+) and IL-6 in the blood. IL-6 was measured as a reliable biomarker in the blood. […] Flow cytometry data were analyzed using FlowJo V10. Proper compensation was set to ensure the median fluorescence intensities of negative and positive cells were […] and then was used to gate the population. […]"}}}
{"smiles": "C=C(C)[C@@H]1CCC(C)=C[C@H]1c1c(O)cc(CCCCC)cc1O", "note": "[CBD, cannabidiol]", "values": [{"measurement": "discrimination index (DI), NOR", "setting": "5xFAD mice [1]", "value": "0.5±0.9"}, {"measurement": "Central zone stay, OF test", "setting": "5xFAD mice [2]", "value": "250 ± 80", "unit": "s"}, {"measurement": "β-amyloid peptide in brain tissues (immunofluorescence)", "setting": "β-amyloid peptide", "value": "reduction of β-amyloid peptide"}, {"measurement": "IL-33 expression in brain tissues (immunofluorescence)", "setting": "IL-33 [3]", "value": "increase the expression of IL-33"}, {"measurement": "TREM2 expression in brain tissues (immunofluorescence)", "setting": "TREM2 [4]", "value": "increase in TREM2 expression"}, {"measurement": "increase in IL-33 expression in astrocytes (GFAP+ cells), flow cytometry", "setting": "IL-33 [5]", "value": 7, "unit": "fold"}, {"measurement": "increase in TREM2 expression in microglia (CD11b+ cells), flow cytometry", "setting": "TREM2 [6]", "value": 10, "unit": "fold"}, {"measurement": "IL-6 expression in peripheral leukocytes, flow cytometry", "setting": "IL-6", "value": "2.1±1.4", "unit": "%"}]}
